{"source": "patent US20100279942A1", "about": "“METHODS FOR TREATING MOTOR NEURON DISEASE” (priority 2004, published 2010)", "key": {"[1]": {"test_system": "F11 cells transformed with SOD1 mutant (A4T-SOD1, G85R-SOD1, G93R-SOD1) genes", "assay": "Neuronal cell death test, Trypan blue exclusion assay, F11 cells transformed with SOD1 mutant genes", "type": "cell-based, rat/mouse hybrid cell", "description": "F11 cell, the hybrid cell of rat embryonic day 13 (E13) primary cultured neuronal cell with mouse neuroblastoma NTG18 cell, was cultured in Ham's F-12 medium (Life Technologies, Gaithersburg, Md.) containing 18% FBS (Hyclone, Logan, Utah) and antibiotics as previously reported (Platika D, et al., 1985, Proc Natl Acad Sci USA 82: 3499-3503; Yamatsuji T, et al., 1996, Science 272: 1349-1352; Huang P, et al., 2000, Mol Hum Reprod 6: 1069-1078; and Niikura T, et al., 2001, J Neuroscience, 21: 1902-1910).\nThe F11 cells (7×10^4 cells/well, 6-well plate, 12- to 16-hour culture in Ham's F-12 (18% PBS) medium) were transformed with wild-type or SOD1 mutant (A4T, G85R, and G93R) genes by lipofection (0.5 μg of each SOD1 gene; 1 μl of LipofectAMINE; 2 μl of PLUS Reagent) under serum-free conditions for 3 hours and cultured for 2 hours in Ham's F-12 (18% PBS) medium. The medium was replaced by Ham's F-12 (10% PBS) in the presence or absence of ADNF. After 72 hours of the transformation, cell mortality was measured by Trypan blue exclusion assay as previously reported (Hashimoto Y, et al., 2001, J Neurosci 21: 9235-9245; and Hashimoto Y, et al, 2001, Proc Natl Acad Sci USA 98: 6336-6341). […]\nIntracellular signaling by ADNF was examined. F11 cells were transformed with pEF-BOS or SOD1 mutant (A4T-SOD1, G85R-SOD1, or G93R-SOD1) cDNA and reacted with 10 nM wortmannin (PI3 kinase inhibitor), 100 μM genistein (tyrosine kinase inhibitor), 50 μM PD98059 (MEK inhibitor), 20 μM SB203580 (p38 MAPK inhibitor), 1 μM AG490 (JAK kinase inhibitor), 5 μM KN93 (calcium/calmodulin-dependent kinase inhibitor), or 10 μM HA1004 (protein kinase A inhibitor) in the presence or absence of 100 nM ADNF. After 72 hours of the transformation, cell mortality was measured by Trypan blue exclusion assay.\nThe effect of KN93 on the neuroprotective action of ADNF was examined. […] After 72 hours of the transformation, cell mortality was measured by Trypan blue exclusion assay. […]"}, "[2]": {"test_system": "NSC34 cells transformed with SOD1 mutant (A4T-SOD1, G85R-SOD1, G93R-SOD1) genes", "assay": "Neuronal cell death test, Trypan blue exclusion assay, NSC34 cells transformed with SOD1 mutant genes", "type": "cell-based, mouse", "description": "NSC34 cell, the hybrid cell of primary cultured, motor neuron-system embryonic mouse spinal cord cell with mouse neuroblastoma NTG18 cell, was cultured in […] medium containing 10% FBS and antibiotics (Cashman N R, et al., 1992, Dev Dyn 194: 209-221; and Durham H D, et al, 1993, Neurotoxicology 14: 387-395).\nThe NSC34 cells (7×10^4 cells/well, 6-well plate, 12 to 16-hour culture in DMEM (10% FBS) medium) were transformed with wild-type or SOD1 mutant (A4T, G85R, and G93R) genes by lipofection (0.5 μg of each SOD1 gene; 1 μl of LipofectAMINE; 2 μl of PLUS Reagent) under serum-free conditions for 3 hours and cultured for 21 hours in DMEM (10% FBS) and after 48 hours in DMED supplemented with N2 supplement (Invitrogen). After 72 hours of the transformation, cell mortality was measured by Trypan blue exclusion assay in the same way as above.\nF11 or NSC34 cells were transformed with pEF-BOS, A4T-SOD1, G85R-SOD1, or G93R-SOD1 cDNA in the presence of increasing concentrations (10 aM, 1 fM, 100 fM, 10 pM, 1 nM, and 100 nM) of ADNF. After 72 hours, cell mortality was measured by Trypan blue exclusion assay."}, "SOD1 proteins": {"test_system": "SOD1 proteins", "assay": "Immunoblot analysis of SOD1 protein expression in transformed cells", "type": "cell-based, mouse and rat/mouse hybrid", "settings": "ADNF treatment; F11 and NSC34 cells", "description": "Immunoblot analysis was conducted according to the previous report (Hashimoto Y, et al., supra, p. 6336-6341). To examine the protein expression of wild-type or SOD1 mutant genes, lysates from the cells transfected with each SOD1 gene were subjected to SDS-PAGE (20 μg/lane). After electrical blotting to a PVDF membrane, the membrane was blocked by a typical method and reacted with an anti-SOD1 antibody and then with a 1:5000-diluted horseradish peroxidase-conjugated anti-mouse IgG antibody (Bio-Rad Lab. Hercules, Calif., USA). The antibody-reactive bands were detected by ECL (Amersham Pharmacia Biotech, Uppsala, Sweden)."}, "[3]": {"test_system": "neuronal cell death caused by amyloid β", "settings": "cited from earlier work"}, "[4]": {"settings": "ADNF at concentrations equal to or above 10 nM"}}, "note": "Ends that are not written are not given here."}
{"sequence": "SALLRSIPA [ADNF, short peptide consisting of nine amino acid residues]", "values": [{"measurement": "cell death inhibition", "setting": "[1]; 10 aM ADNF, three SOD1 mutant genes, 72 hours", "result": "hardly exhibited cell death inhibition"}, {"measurement": "cell mortality induced by SOD1 mutant genes", "setting": "[1]; 100 fM ADNF, A4T-, G85R-, G93R-SOD1, 72 hours after transformation", "result": "completely decreased cell mortalities induced by these three types of SOD1 mutant genes to the level of the control"}, {"measurement": "protective action on cell death caused by SOD1 mutant genes", "setting": "[1]; [4]", "result": "complete protective action"}, {"measurement": "inhibition of neuronal cell death caused by SOD1 mutant genes", "setting": "[2]; 100 fM ADNF, three SOD1 mutant genes, 72 hours", "result": "can completely inhibit neuronal cell death"}, {"measurement": "inhibitory effect on neuronal cell death at high concentration", "setting": "[2]; [4]", "result": "not decreased"}, {"measurement": "SOD1 gene expression levels", "setting": "SOD1 proteins", "result": "not affected"}, {"measurement": "neuroprotective action at high concentration", "setting": "[3]; ADNF at or above 10 nM, Brenneman et al.", "result": "lose its neuroprotective action"}, {"measurement": "inhibitory activity against cell death caused by amyloid β toxicity- or APP mutant gene-induced disorders", "setting": "[3]; ADNF at or above nM levels, Hashimoto et al. 2001", "result": "reduced inhibitory activity"}]}
